Laboratory results: article PMC11494886, “Discovery and design of molecular glue enhancers of CDK12–DDB1 interactions for targeted degradation of cyclin K” (RSC Chemical Biology, 2024)

Tests used:
Cdk12/CycK and DDB1ΔB = target: T1, Cdk12/CycK and DDB1ΔB (Homo sapiens, UniProt Q16531+Q9NYV4, DEL396-705); experiment: GST pulldown assay, recruitment of DDB1ΔB to Cdk12/CycK; type: binding; conditions: GST-Cdk12/GST-CycK bait, 5 μM compound, vs DMSO
T1 construct: the Cdk12 (714–1063)/CycK (1–267) complex and the DDB1ΔB protein; made in house; host or cells: Sf9 insect cells (MultiBacTurbo)
T1 sequence (Q9NYV4 714-1063, stated change not applied): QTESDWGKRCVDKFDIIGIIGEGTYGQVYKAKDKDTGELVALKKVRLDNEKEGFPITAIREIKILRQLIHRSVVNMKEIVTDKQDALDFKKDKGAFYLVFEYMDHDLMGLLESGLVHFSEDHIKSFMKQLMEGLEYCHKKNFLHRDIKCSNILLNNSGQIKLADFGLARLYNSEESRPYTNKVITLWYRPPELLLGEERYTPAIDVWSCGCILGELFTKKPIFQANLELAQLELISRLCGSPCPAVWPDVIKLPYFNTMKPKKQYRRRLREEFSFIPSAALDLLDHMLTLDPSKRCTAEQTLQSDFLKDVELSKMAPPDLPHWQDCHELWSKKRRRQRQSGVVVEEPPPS
T1 sequence (O75909 1-267 partner limits assumed): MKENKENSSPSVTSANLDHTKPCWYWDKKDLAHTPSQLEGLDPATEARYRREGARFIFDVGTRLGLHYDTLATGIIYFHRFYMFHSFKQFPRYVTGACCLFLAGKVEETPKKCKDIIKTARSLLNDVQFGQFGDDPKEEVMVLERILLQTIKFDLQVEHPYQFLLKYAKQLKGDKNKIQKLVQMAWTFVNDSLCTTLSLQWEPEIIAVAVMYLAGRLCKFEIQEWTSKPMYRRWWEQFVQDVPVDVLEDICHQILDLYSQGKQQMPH
T1 sequence (Q16531 with tags, fused parts or gaps DEL396-705): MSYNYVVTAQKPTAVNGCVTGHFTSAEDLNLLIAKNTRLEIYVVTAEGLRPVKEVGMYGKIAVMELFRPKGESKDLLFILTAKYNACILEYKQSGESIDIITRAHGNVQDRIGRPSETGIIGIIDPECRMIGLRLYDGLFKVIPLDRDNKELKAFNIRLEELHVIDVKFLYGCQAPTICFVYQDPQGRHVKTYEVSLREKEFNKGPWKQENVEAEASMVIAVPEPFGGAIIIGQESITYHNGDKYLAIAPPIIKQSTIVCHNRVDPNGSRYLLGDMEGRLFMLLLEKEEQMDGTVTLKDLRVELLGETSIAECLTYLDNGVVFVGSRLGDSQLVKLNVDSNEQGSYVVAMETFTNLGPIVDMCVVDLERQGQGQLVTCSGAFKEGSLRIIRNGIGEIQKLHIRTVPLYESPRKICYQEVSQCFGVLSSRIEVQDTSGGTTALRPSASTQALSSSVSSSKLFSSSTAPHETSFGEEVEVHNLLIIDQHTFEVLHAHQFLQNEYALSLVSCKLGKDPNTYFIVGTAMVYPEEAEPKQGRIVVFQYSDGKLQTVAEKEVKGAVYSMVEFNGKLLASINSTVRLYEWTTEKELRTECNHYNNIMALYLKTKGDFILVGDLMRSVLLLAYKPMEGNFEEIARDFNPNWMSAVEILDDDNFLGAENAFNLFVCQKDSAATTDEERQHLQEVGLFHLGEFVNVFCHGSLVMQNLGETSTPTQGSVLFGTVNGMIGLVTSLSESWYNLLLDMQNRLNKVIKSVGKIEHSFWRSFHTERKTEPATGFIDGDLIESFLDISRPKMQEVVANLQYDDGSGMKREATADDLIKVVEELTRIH
Description: The pulldown assay was utilized to identify drug-triggered protein–protein interactions involving the Cdk12 (714–1063)/CycK (1–267) complex and the DDB1ΔB protein. In this assay, purified GST-tagged Cdk12 construct complexed with GST-CycK was combined with equimolar amounts of His6-tagged DDB1ΔB (5 μM) in the presence of 5 μM of the respective small molecular compound in pulldown assay buffer (50 mM Hepes pH 7.4, 200 mM NaCl, 0.25 mM TCEP, 0.05% (v/v) Tween20), ensuring a 2% total DMSO concentration. Experimental controls included samples supplemented with 2% DMSO instead of compound as well as samples devoid of the GST-tagged Cdk12/CycK complex. Each sample was individually added to approximately 50 μL of pre-equilibrated glutathione agarose beads (Thermo Fisher Scientific). The bead suspensions were then subjected to a 2 h incubation period at room temperature with gentle agitation. After incubation, the beads were pelleted by centrifugation at 700 × g for 4 min, the supernatant was discarded, and the beads were washed three-times with 100 μL of pulldown assay buffer. Following the washing step, bound proteins were eluted from the beads with 50 μL of pulldown assay buffer supplemented with 10 mM GSH for 1 h at room temperature under rotation. Subsequently, the beads were again pelleted by centrifugation at 700 × g for 4 min and the resulting supernatants containing eluted protein fractions were mixed with 6 × SDS sample buffer at a 1 : 1 (v/v) ratio. The eluted protein samples were separated by SDS-PAGE and subjected to Coomassie brilliant blue staining for visualization and analysis.

Cdk12/CycK = target: T2, Cdk12/CycK (Homo sapiens, UniProt Q9NYV4); experiment: Thermal stability (nanoDSF) of Cdk12/CycK; type: binding; conditions: Cdk12/CycK 5 μM, 3-fold molar excess of compound
T2 construct: GST (N, cleaved yes); made in house; host or cells: Sf9 insect cells (MultiBacTurbo), co-expressed with S. cerevisiae CAK1
T2 sequence (Q9NYV4 714-1063): as the sequence (Q9NYV4 714-1063, stated change not applied) above
T2 sequence (O75909 1-267 partner limits assumed): as the sequence (O75909 1-267 partner limits assumed) above
Text: Synthetic genes, codon optimized for expression in Sf9 insect cells, comprising the kinase domain of human Cdk12 (residues 714–1063, UniProt accession number Q9NYV4) and cyclin box domains of human cyclin K (residues 1–267, UniProt accession number O75909) were purchased from GeneArt. The coding sequence of Cdk12 was integrated into the pACEBac1 acceptor vector, while CycK was introduced into pIDK donor vector. Both target vectors underwent modification, wherein a GST-affinity tag followed by a tobacco etch virus (TEV) protease cleavage site was introduced upstream of the protein coding sequence. A pIDC donor vector was employed to insert full-length CDK-activating kinase CAK1 (UniProt accession number P43568) from S. cerevisiae devoid of any affinity tag. Cre recombination was performed to combine all three vectors in vitro, resulting in fused vectors suitable for co-expression in Sf9 insect cells. […]
To investigate the thermal stability of proteins and protein complexes in solution, as well as to examine the impact of small molecular compounds on the proteins stability, the nano-differential scanning fluorimetry (nanoDSF) method was employed using a Prometheus NT.48 (NanoTemper) device. […] Thermal stability was monitored over a temperature range of 20–90 °C with a linear gradient of 1.5 °C min^−1, utilizing the PR.ThermControl software (NanoTemper). […]

[1] = tested on: MDA-MB-231DDB1-shRNA cells; experiment: CellTiter-Glo viability assay, MDA-MB-231 DDB1-shRNA; type: cell-based, human; conditions: for EC50: Homo sapiens, MDA-MB-231 DDB1 shRNA, 72 hours, CellTiter-Glo, read-out: EC50 cell viability
Text: For stable genetic knock-down of DDB1 in cells, predesigned and validated TRC2-pLKO-puro shRNA plasmids for DDB1 (TRCN0000082855 and TRCN0000082856), and a non-targeting shRNA plasmid (SHC001) were obtained from Millipore Sigma. All plasmids were purified using the Qiagen Maxiprep kit (Qiagen). FuGENE HD 6 transfection reagent (Promega) was used for transfection of plasmids and lentiviral gene/shRNA constructs. Mission lentiviral packaging mix (Millipore Sigma) was used to package lentiviral plasmids into lentiviral particles in HEK293T cells, as per manufacturer's protocols. The resultant virus was concentrated using Vivaspin 20 centrifugal concentrators (Sartorius). MDA-MB-231 and HEK293T cells were transduced with lentivirus. Stable knocked down DDB1 (shDDB1-231 and shDDB1-HEK293T) cells were generated after selection with the antibiotic puromycin, and genetic knockdown was confirmed by western blotting.
Cell viability was measured by Cell Titer Glo assay kit (Promega, USA). EC50 was determined from the nonlinear regression and a four-parameter algorithm on the GraphPad Prism software.

| ΔTm (elevation of melting temperature) (Cdk12/CycK) | EC50 [1] [nM] | fold change of EC50 (DDB1 shRNA vs WT) ([1]; MDA-MB-231 DDB1 shRNA vs WT MDA-MB-231, 72 hours) | Compound | recruitment of DDB1ΔB in pulldown (Cdk12/CycK and DDB1ΔB) |
| --- | --- | --- | --- | --- |
| +4.1 °C | 218 |  | Cn1cc(-n2cnc3c(NCc4nc5cc(Cl)c(Cl)cc5[nH]4)nc(N4CCOCC4)nc32)cn1 [SR-4835] | enrichment of DDB1ΔB fractions |
| +4.15 °C | 65 | 0.9 | CN(C)C/C=C/C(=O)Nc1ccc(C(=O)N2CCC[C@@H](Nc3ncc(Cl)c(-c4c[nH]c5ccccc45)n3)C2)cc1 [THZ531, reference compound] | incapable of recruiting the DDB1ΔB protein |
